# In US10167262B2, “Herbicidal substituted 3-arylpyrazoles” (FMC CORPORATION, priority 2014, dated 2019):
# What was measured:
# Type in all cases: in vivo
# [1] = system: barnyardgrass (Echinochloa crus-galli); experiment: Test A pre-/postemergence greenhouse herbicide test, visual injury rating 0-100
# Description: (§1) Seeds of plant species selected from barnyardgrass (Echinochloa crus-galli), large (Lg) crabgrass (Digitaria sanguinalis), giant foxtail (Setaria faberii), morningglory (Ipomoea spp.), pigweed (Amaranthus retroflexus), velvetleaf (Abutilon theophrasti), wheat (Triticum aestivum), and corn (Zea mays) were planted into a blend of loam soil and sand and treated preemergence with a directed soil spray using test chemicals formulated in a non-phytotoxic solvent mixture which included a surfactant. At the same time these species were also treated with postemergence applications of test chemicals formulated in the same manner. Plants ranged in height from 2 to 10 cm and were in the one- to two-leaf stage for the postemergence treatment. Treated plants and untreated controls were maintained in a greenhouse for approximately 10 days, after which time all treated plants were compared to untreated controls and visually evaluated for injury. Plant response ratings, summarized in Table A, are based on a 0 to 100 scale where 0 is no effect and 100 is complete control. A dash (-) response means no test result.
# corn (Zea mays) = experiment: as above
# Description: as §1
# [2] = system: giant foxtail (Setaria faberii); experiment: as above
# Description: as §1
# [3] = system: large (Lg) crabgrass (Digitaria sanguinalis); experiment: as above
# Description: as §1
# [4] = system: morningglory (Ipomoea spp.); experiment: as above
# Description: as §1
# [5] = system: pigweed (Amaranthus retroflexus); experiment: as above
# Description: as §1
# [6] = system: velvetleaf (Abutilon theophrasti); experiment: as above
# Description: as §1
# [7] = system: wheat (Triticum aestivum); experiment: as above
# Description: as §1
# [8] = system: ducksalad (Heteranthera limosa); experiment: Test B flooded paddy test, plant response rating 0-100; conditions: Flood, 250 g ai/ha; scale 0 to 100 (0 no effect, 100 complete control); 13 to 15 days
# Description: (§2) At time of treatment, test pots were flooded to 3 cm above the soil surface, treated by application of test compounds directly to the paddy water, and then maintained at that water depth for the duration of the test. Treated plants and controls were maintained in a greenhouse for 13 to 15 days, after which time all species were compared to controls and visually evaluated. […] A dash (-) response means no test result.
# rice (Oryza sativa) = experiment: as above; conditions: Flood, 250 g ai/ha; scale 0 to 100 (0 no effect, 100 complete control); 13 to 15 days
# Description: as §2
# [9] = system: sedge, umbrella (small-flower umbrella sedge, Cyperus difformis); experiment: as above; conditions: Flood, 250 g ai/ha; scale 0 to 100 (0 no effect, 100 complete control); 13 to 15 days
# Description: as §2
smiles,measurement,setting,value
Cn1cc(C(=O)c2ccccc2)c(-c2cc(Cl)c(Cl)c(Cl)c2)n1 [Compound 11],"Plant response rating (0 to 100 scale), Barnyardgrass","[1]; Postemergence, 1000 g ai/ha",0
same,"Plant response rating (0 to 100 scale), Barnyardgrass","[1]; Preemergence, 1000 g ai/ha",0
same,"Plant response rating (0 to 100 scale), Corn","corn (Zea mays); Postemergence, 1000 g ai/ha",0
same,"Plant response rating (0 to 100 scale), Corn","corn (Zea mays); Preemergence, 1000 g ai/ha",0
same,"Plant response rating (0 to 100 scale), Foxtail, Giant","[2]; Postemergence, 1000 g ai/ha",0
same,"Plant response rating (0 to 100 scale), Foxtail, Giant","[2]; Preemergence, 1000 g ai/ha",0
same,"Plant response rating (0 to 100 scale), Crabgrass, Large","[3]; Postemergence, 1000 g ai/ha",0
same,"Plant response rating (0 to 100 scale), Crabgrass, Large","[3]; Preemergence, 1000 g ai/ha",0
same,"Plant response rating (0 to 100 scale), Morningglory","[4]; Postemergence, 1000 g ai/ha",0
same,"Plant response rating (0 to 100 scale), Morningglory","[4]; Preemergence, 1000 g ai/ha",0
same,"Plant response rating (0 to 100 scale), Pigweed","[5]; Postemergence, 1000 g ai/ha",90
same,"Plant response rating (0 to 100 scale), Pigweed","[5]; Preemergence, 1000 g ai/ha",90
same,"Plant response rating (0 to 100 scale), Velvetleaf","[6]; Postemergence, 1000 g ai/ha",80
same,"Plant response rating (0 to 100 scale), Velvetleaf","[6]; Preemergence, 1000 g ai/ha",70
same,"Plant response rating (0 to 100 scale), Wheat","[7]; Postemergence, 1000 g ai/ha",0
same,"Plant response rating (0 to 100 scale), Wheat","[7]; Preemergence, 1000 g ai/ha",0
same,"Plant response rating, Ducksalad",[8],0
same,"Plant response rating, Rice",rice (Oryza sativa),0
same,"Plant response rating, Sedge, Umbrella",[9],0
CCn1cc(C(=O)c2ccccc2)c(-c2cc(Cl)c(Cl)c(Cl)c2)n1 [Compound 12],"Plant response rating (0 to 100 scale), Barnyardgrass","[1]; Postemergence, 1000 g ai/ha",0
same,"Plant response rating (0 to 100 scale), Barnyardgrass","[1]; Preemergence, 1000 g ai/ha",0
same,"Plant response rating (0 to 100 scale), Corn","corn (Zea mays); Postemergence, 1000 g ai/ha",0
same,"Plant response rating (0 to 100 scale), Corn","corn (Zea mays); Preemergence, 1000 g ai/ha",0
same,"Plant response rating (0 to 100 scale), Foxtail, Giant","[2]; Postemergence, 1000 g ai/ha",0
same,"Plant response rating (0 to 100 scale), Foxtail, Giant","[2]; Preemergence, 1000 g ai/ha",0
same,"Plant response rating (0 to 100 scale), Crabgrass, Large","[3]; Postemergence, 1000 g ai/ha",0
same,"Plant response rating (0 to 100 scale), Crabgrass, Large","[3]; Preemergence, 1000 g ai/ha",0
same,"Plant response rating (0 to 100 scale), Morningglory","[4]; Postemergence, 1000 g ai/ha",0
same,"Plant response rating (0 to 100 scale), Morningglory","[4]; Preemergence, 1000 g ai/ha",0
same,"Plant response rating (0 to 100 scale), Pigweed","[5]; Postemergence, 1000 g ai/ha",90
same,"Plant response rating (0 to 100 scale), Pigweed","[5]; Preemergence, 1000 g ai/ha",80
same,"Plant response rating (0 to 100 scale), Velvetleaf","[6]; Postemergence, 1000 g ai/ha",80
same,"Plant response rating (0 to 100 scale), Velvetleaf","[6]; Preemergence, 1000 g ai/ha",70
same,"Plant response rating (0 to 100 scale), Wheat","[7]; Postemergence, 1000 g ai/ha",0
same,"Plant response rating (0 to 100 scale), Wheat","[7]; Preemergence, 1000 g ai/ha",0
same,"Plant response rating, Ducksalad",[8],20
same,"Plant response rating, Rice",rice (Oryza sativa),0
same,"Plant response rating, Sedge, Umbrella",[9],70
Clc1cc(Cl)cc(-c2n[nH]cc2C2(c3ccccc3)SCCS2)c1 [Compound 69],"Plant response rating (0 to 100 scale), Barnyardgrass","[1]; Postemergence, 125 g ai/ha",0
same,"Plant response rating (0 to 100 scale), Barnyardgrass","[1]; Postemergence, 500 g ai/ha",0
same,"Barnyardgrass plant response rating (0 = no effect, 100 = complete control)","[1]; Preemergence, 125 g ai/ha",0
same,"Plant response rating (0 to 100 scale), Barnyardgrass","[1]; Preemergence, 500 g ai/ha",0
same,"Plant response rating (0 to 100 scale), Corn","corn (Zea mays); Postemergence, 125 g ai/ha",0
same,"Plant response rating (0 to 100 scale), Corn","corn (Zea mays); Postemergence, 500 g ai/ha",0
same,"Corn plant response rating (0 = no effect, 100 = complete control)","corn (Zea mays); Preemergence, 125 g ai/ha",0
same,"Plant response rating (0 to 100 scale), Corn","corn (Zea mays); Preemergence, 500 g ai/ha",0
same,"Plant response rating (0 to 100 scale), Foxtail, Giant","[2]; Postemergence, 125 g ai/ha",0
same,"Plant response rating (0 to 100 scale), Foxtail, Giant","[2]; Postemergence, 500 g ai/ha",0
same,"Foxtail, Giant plant response rating (0 = no effect, 100 = complete control)","[2]; Preemergence, 125 g ai/ha",0
same,"Plant response rating (0 to 100 scale), Foxtail, Giant","[2]; Preemergence, 500 g ai/ha",0
same,"Plant response rating (0 to 100 scale), Crabgrass, Large","[3]; Postemergence, 125 g ai/ha",0
same,"Plant response rating (0 to 100 scale), Crabgrass, Large","[3]; Postemergence, 500 g ai/ha",0
same,"Crabgrass, Large plant response rating (0 = no effect, 100 = complete control)","[3]; Preemergence, 125 g ai/ha",0
same,"Plant response rating (0 to 100 scale), Crabgrass, Large","[3]; Preemergence, 500 g ai/ha",0
same,"Plant response rating (0 to 100 scale), Morningglory","[4]; Postemergence, 125 g ai/ha",0
same,"Plant response rating (0 to 100 scale), Morningglory","[4]; Postemergence, 500 g ai/ha",0
same,"Morningglory plant response rating (0 = no effect, 100 = complete control)","[4]; Preemergence, 125 g ai/ha",0
same,"Plant response rating (0 to 100 scale), Morningglory","[4]; Preemergence, 500 g ai/ha",0
same,"Plant response rating (0 to 100 scale), Pigweed","[5]; Postemergence, 125 g ai/ha",30
same,"Plant response rating (0 to 100 scale), Pigweed","[5]; Postemergence, 500 g ai/ha",80
same,"Pigweed plant response rating (0 = no effect, 100 = complete control)","[5]; Preemergence, 125 g ai/ha",0
same,"Plant response rating (0 to 100 scale), Pigweed","[5]; Preemergence, 500 g ai/ha",40
same,"Plant response rating (0 to 100 scale), Velvetleaf","[6]; Postemergence, 125 g ai/ha",20
same,"Plant response rating (0 to 100 scale), Velvetleaf","[6]; Postemergence, 500 g ai/ha",80
same,"Velvetleaf plant response rating (0 = no effect, 100 = complete control)","[6]; Preemergence, 125 g ai/ha",0
same,"Plant response rating (0 to 100 scale), Velvetleaf","[6]; Preemergence, 500 g ai/ha",20
same,"Plant response rating (0 to 100 scale), Wheat","[7]; Postemergence, 125 g ai/ha",0
same,"Plant response rating (0 to 100 scale), Wheat","[7]; Postemergence, 500 g ai/ha",0
same,"Wheat plant response rating (0 = no effect, 100 = complete control)","[7]; Preemergence, 125 g ai/ha",0
